Experimental data published in patent US11142515B2, “Pyrazolyl-ureas as kinase inhibitors” (RESPIVERT LIMITED, priority 2014, dated 2021).

Experiments:
p38MAPKγ (MAPK12) = target: T1, p38MAPKγ (MAPK12) (Homo sapiens, UniProt P53778); experiment: p38 MAPKγ enzyme inhibition (Z-LYTE FRET); format: biochemical; details: Table 2A; read-out: IC50 Values for Enzyme Inhibition p38 MAPKγ
T1 construct: purchased Life Technologies
T1 sequence (P53778 1-367): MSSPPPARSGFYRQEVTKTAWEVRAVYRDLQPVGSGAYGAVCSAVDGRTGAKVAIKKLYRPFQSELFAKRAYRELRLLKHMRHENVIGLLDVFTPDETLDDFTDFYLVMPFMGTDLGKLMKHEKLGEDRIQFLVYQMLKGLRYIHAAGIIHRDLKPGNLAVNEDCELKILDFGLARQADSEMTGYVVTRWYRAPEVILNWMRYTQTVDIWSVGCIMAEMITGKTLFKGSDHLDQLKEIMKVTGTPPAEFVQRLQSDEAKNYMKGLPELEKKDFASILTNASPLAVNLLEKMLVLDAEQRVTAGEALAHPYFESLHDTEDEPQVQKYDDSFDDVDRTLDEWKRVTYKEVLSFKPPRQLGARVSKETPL
Summary of the method: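 Z-LYTE read-out: after 1 h protease development, only non-phosphorylated peptide is cleaved, and the donor/acceptor (coumarin/fluorescein) ratio reports phosphorylation. Beforehand, enzyme and compound (stock concentrations 0.0012–40 μg/mL) were preincubated 2 h at RT, then the kinase reaction ran 1 h at RT with peptide and ATP (8 μM and 400 μM stocks).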

GSK 3α enzyme isoform = target: T2, GSK 3α enzyme isoform (Homo sapiens, UniProt P49840); experiment: GSK 3α enzyme inhibition (Z-LYTE FRET); format: biochemical; details: Table 2A; read-out: IC50 Values for Enzyme Inhibition GSK3α
T2 construct: purchased Life Technologies
Summary of the method: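 Z-LYTE FRET kinase assay: GSK3α protein (500 ng/mL stock) preincubated with compound (0.0012–40 μg/mL stocks) for 2 h at RT. FRET peptide (8 μM stock) and ATP (40 μM stock) added for 1 h at RT, then protease development for 1 h. Phosphorylation taken from the coumarin/fluorescein emission ratio.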

Hck = target: T3, Hck (Homo sapiens, UniProt P08631); experiment: Hck enzyme inhibition (Z-LYTE FRET); format: biochemical; details: Table 2A
T3 construct: purchased Life Technologies
Summary of the method: (§1)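 Enzyme (1000, 1400 or 2000 ng/mL stocks for c-Src, Hck, Syk respectively) preincubated 2 h at RT with compound (0.0012–40 μg/mL series), then FRET peptide plus ATP (800 μM c-Src; 60 μM Hck, Syk stocks) for 1 h. Protease development 1 h; phosphorylation from coumarin/fluorescein emission ratio.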

[1] = test system: IL-8 release in d-U937 cells; experiment: LPS-induced IL-8 release in d-U937 cells; format: cell-based; details: Homo sapiens, dU937, LPS 0.1 μg/mL 4 h
Summary of the method: (§2)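 U937 cells differentiated with PMA (100–200 ng/mL, 48–72 h). Pre-treated with compound for 2 h, then stimulated with E. coli LPS (0.1 μg/mL) for 4 h. Supernatant TNFα and IL-8 measured by sandwich ELISA; inhibition versus vehicle, REC50 from concentration-response curves.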

c-Src = target: T4, c-Src (Homo sapiens, UniProt P12931); experiment: c-Src enzyme inhibition (Z-LYTE FRET); format: biochemical; details: Table 2A
T4 construct: purchased Life Technologies
Summary of the method: as §1

Syk = target: T5, Syk (Homo sapiens, UniProt P43405); experiment: Syk enzyme inhibition (Z-LYTE FRET); format: biochemical; details: Table 2A
T5 construct: purchased Life Technologies
Summary of the method: as §1

[2] = test system: TNFα release in d-U937 cells; experiment: LPS-induced TNFα release in d-U937 cells; format: cell-based; details: Homo sapiens, dU937; read-out: LPS Induced Release TNFα REC50 (dU937); also: relative to 10 µg/mL BIRB-796
Summary of the method: as §2

d-U937 cells = experiment: Cell viability: MTT assay in differentiated U937 cells; format: cell-based, human; details: 10 μg/mL
Summary of the method: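 Differentiated U937 cells exposed to compound at a final 10 μg/mL, either 4 h in 5% FCS RPMI1640 or 24 h in 10% FCS RPMI1640. MTT added for 1 h, formazan dissolved in DMSO, absorbance read at 550 nm; % viability loss relative to 0.5% DMSO vehicle, with increases shown as negative values.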

T2 sequence (P49840 whole entry, canonical isoform): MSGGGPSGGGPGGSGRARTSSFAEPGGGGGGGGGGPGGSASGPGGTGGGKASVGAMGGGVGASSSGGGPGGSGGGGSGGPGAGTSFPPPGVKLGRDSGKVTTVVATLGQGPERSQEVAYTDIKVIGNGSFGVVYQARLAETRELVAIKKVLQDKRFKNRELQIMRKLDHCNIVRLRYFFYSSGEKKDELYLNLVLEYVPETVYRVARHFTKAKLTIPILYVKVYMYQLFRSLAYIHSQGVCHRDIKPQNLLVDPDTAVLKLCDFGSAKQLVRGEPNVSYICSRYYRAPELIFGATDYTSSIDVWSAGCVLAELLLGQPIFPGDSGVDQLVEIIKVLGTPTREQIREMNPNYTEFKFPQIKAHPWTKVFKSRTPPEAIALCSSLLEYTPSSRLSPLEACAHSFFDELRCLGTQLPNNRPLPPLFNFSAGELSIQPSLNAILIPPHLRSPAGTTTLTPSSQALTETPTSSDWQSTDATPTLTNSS
T4 sequence (P12931 whole entry): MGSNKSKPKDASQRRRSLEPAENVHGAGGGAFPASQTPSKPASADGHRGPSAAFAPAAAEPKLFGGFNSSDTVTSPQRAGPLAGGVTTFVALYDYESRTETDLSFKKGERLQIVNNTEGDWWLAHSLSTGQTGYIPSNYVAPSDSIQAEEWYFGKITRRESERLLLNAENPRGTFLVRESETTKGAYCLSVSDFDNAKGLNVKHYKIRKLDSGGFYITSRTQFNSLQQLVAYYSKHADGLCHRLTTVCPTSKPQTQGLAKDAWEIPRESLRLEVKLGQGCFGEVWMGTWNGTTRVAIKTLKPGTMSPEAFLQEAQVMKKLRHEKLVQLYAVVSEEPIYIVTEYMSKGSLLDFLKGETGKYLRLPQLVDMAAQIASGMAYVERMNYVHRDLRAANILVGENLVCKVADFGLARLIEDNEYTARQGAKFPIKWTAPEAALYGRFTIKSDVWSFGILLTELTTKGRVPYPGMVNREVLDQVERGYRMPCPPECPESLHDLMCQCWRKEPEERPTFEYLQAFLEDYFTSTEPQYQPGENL
T3 sequence (P08631 22-526): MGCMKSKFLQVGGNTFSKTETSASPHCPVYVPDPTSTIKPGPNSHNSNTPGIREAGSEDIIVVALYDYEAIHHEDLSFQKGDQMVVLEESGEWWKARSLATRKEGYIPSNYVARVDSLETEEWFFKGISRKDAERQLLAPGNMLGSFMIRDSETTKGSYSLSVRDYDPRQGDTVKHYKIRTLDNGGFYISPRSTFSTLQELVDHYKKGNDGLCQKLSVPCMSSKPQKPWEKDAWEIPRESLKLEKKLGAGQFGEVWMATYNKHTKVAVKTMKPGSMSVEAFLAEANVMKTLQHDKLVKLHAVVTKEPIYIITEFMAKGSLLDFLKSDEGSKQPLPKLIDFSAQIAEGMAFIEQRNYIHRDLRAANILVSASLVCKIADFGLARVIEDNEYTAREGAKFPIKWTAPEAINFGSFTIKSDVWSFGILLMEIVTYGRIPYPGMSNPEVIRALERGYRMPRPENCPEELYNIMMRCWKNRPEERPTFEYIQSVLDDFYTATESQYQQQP

| IC50 (p38MAPKγ (MAPK12)) [nM] | IC50 (GSK 3α enzyme isoform) [nM] | IC50 (Hck) [nM] | IC50 [1] [nM] | IC50 (c-Src) [nM] | IC50 (Syk) [nM] | EC50 [2] [nM] | SMILES | MTT Assay Cell viability at time point indicated in d-U937 Cells, 4 h (d-U937 cells) | MTT Assay Cell viability at time point indicated in d-U937 Cells, 24 h (d-U937 cells) |
| --- | --- | --- | --- | --- | --- | --- | --- | --- | --- |
| 1070 | > 13800 | 48 | 2.8 | 61 | > 14400 | 1.6 | Cc1ccc(-n2nc(C(C)(C)C)cc2NC(=O)Nc2ccc(OCc3ccnc(Nc4cnc(C(=O)N5CCCC5)cn4)c3)c3ccccc23)cc1 [Example 36] | − (−ve and +ve indicate the value is below and above, respectively, the no significant effect threshold defined as 30% inhibition at 10 μg/mL at the time point indicated) | − (−ve and +ve indicate the value is below and above, respectively, the no significant effect threshold defined as 30% inhibition at 10 μg/mL at the time point indicated) |
| 569 | > 10000 | 142 | 19.3 | 512 | > 16000 | 14.3 | CCc1cnc(Nc2cc(COc3ccc(NC(=O)Nc4cc(C(C)(C)C)nn4-c4ccc(C)cc4)c4ccccc34)ccn2)cn1 [Example 37] | − (−ve and +ve indicate the value is below and above, respectively, the no significant effect threshold defined as 30% inhibition at 10 μg/mL at the time point indicated) | − (−ve and +ve indicate the value is below and above, respectively, the no significant effect threshold defined as 30% inhibition at 10 μg/mL at the time point indicated) |
| > 16300 | 5990 | 60 | 9.6 | 153 | > 16300 | 2.7 | COc1ccc(-n2nc(C(C)(C)C)cc2NC(=O)Nc2ccc(OCc3ccnc(Nc4cnccn4)c3)c3ccccc23)cc1 [Example 38] | − (−ve and +ve indicate the value is below and above, respectively, the no significant effect threshold defined as 30% inhibition at 10 μg/mL at the time point indicated) | − (−ve and +ve indicate the value is below and above, respectively, the no significant effect threshold defined as 30% inhibition at 10 μg/mL at the time point indicated) |
| 310 | > 15900 | 31 | 12.8 | 82 | > 15900 | 3.4 | COc1ccc(-n2nc(C(C)(C)C)cc2NC(=O)Nc2ccc(OCc3ccnc(Nc4cnccn4)c3)c3ccccc23)cc1C [Example 39] | − (−ve and +ve indicate the value is below and above, respectively, the no significant effect threshold defined as 30% inhibition at 10 μg/mL at the time point indicated) | − (−ve and +ve indicate the value is below and above, respectively, the no significant effect threshold defined as 30% inhibition at 10 μg/mL at the time point indicated) |
| 79 | 8780 | 23 | 11.7 | 85 | > 16700 | 3 | Cc1cccc(-n2nc(C(C)(C)C)cc2NC(=O)Nc2ccc(OCc3ccnc(Nc4cnccn4)c3)c3ccccc23)c1 [Example 40] | − (−ve and +ve indicate the value is below and above, respectively, the no significant effect threshold defined as 30% inhibition at 10 μg/mL at the time point indicated) | − (−ve and +ve indicate the value is below and above, respectively, the no significant effect threshold defined as 30% inhibition at 10 μg/mL at the time point indicated) |
| > 16000 | 3570 | 1430 | 43.8 | 11000 | 6130 | 3 | CC(C)c1ccc(-n2nc(C(C)(C)C)cc2NC(=O)Nc2ccc(OCc3ccnc(Nc4cnccn4)c3)c3ccccc23)cc1 [Example 41] | − (−ve and +ve indicate the value is below and above, respectively, the no significant effect threshold defined as 30% inhibition at 10 μg/mL at the time point indicated) | − (−ve and +ve indicate the value is below and above, respectively, the no significant effect threshold defined as 30% inhibition at 10 μg/mL at the time point indicated) |
| 521 | 6940 | 89 | 18.3 | 543 | > 16300 | 4.3 | CCc1ccc(-n2nc(C(C)(C)C)cc2NC(=O)Nc2ccc(OCc3ccnc(Nc4cnccn4)c3)c3ccccc23)cc1 [Example 42] | − (−ve and +ve indicate the value is below and above, respectively, the no significant effect threshold defined as 30% inhibition at 10 μg/mL at the time point indicated) | − (−ve and +ve indicate the value is below and above, respectively, the no significant effect threshold defined as 30% inhibition at 10 μg/mL at the time point indicated) |
| 394 | 7920 | 53 | 41.4 | 73 | > 14200 | 16.8 | COCCNC(=O)c1cnc(Nc2cc(COc3ccc(NC(=O)Nc4cc(C(C)(C)C)nn4-c4ccc(C)s4)c4ccccc34)ccn2)cn1 [Example 43] | − (−ve and +ve indicate the value is below and above, respectively, the no significant effect threshold defined as 30% inhibition at 10 μg/mL at the time point indicated) | − (−ve and +ve indicate the value is below and above, respectively, the no significant effect threshold defined as 30% inhibition at 10 μg/mL at the time point indicated) |
| 454 | > 14200 | 58 | 52.2 | 233 | > 14200 | 88.2 | COCCNC(=O)c1cnc(Nc2cc(COc3ccc(NC(=O)Nc4cc(C(C)(C)C)nn4-c4csc(C)c4)c4ccccc34)ccn2)cn1 [Example 44] | − (−ve and +ve indicate the value is below and above, respectively, the no significant effect threshold defined as 30% inhibition at 10 μg/mL at the time point indicated) | + (−ve and +ve indicate the value is below and above, respectively, the no significant effect threshold defined as 30% inhibition at 10 μg/mL at the time point indicated) |
| > 16200 | 1900 | 2240 | 17.1 | 7890 | > 16200 | 3.5 | CC(C)(C)c1cc(NC(=O)Nc2ccc(OCc3ccnc(Nc4cnccn4)c3)c3ccccc23)n(-c2ccc(Cl)cc2)n1 [Example 45] | − (−ve and +ve indicate the value is below and above, respectively, the no significant effect threshold defined as 30% inhibition at 10 μg/mL at the time point indicated) | − (−ve and +ve indicate the value is below and above, respectively, the no significant effect threshold defined as 30% inhibition at 10 μg/mL at the time point indicated) |
| 1950 | 7050 | 68 | 268 | 385 | 6700 | 0.7 | COc1ccc(-n2nc(C(C)(C)C)cc2NC(=O)Nc2ccc(OCc3ccnc(Nc4cnccn4)c3)c3ccccc23)cc1Cl [Example 46] | − (−ve and +ve indicate the value is below and above, respectively, the no significant effect threshold defined as 30% inhibition at 10 μg/mL at the time point indicated) | − (−ve and +ve indicate the value is below and above, respectively, the no significant effect threshold defined as 30% inhibition at 10 μg/mL at the time point indicated) |
